{"source": "patent US11505543B2", "about": "“4-oxo-3,4-dihydroquinazoline compounds as inhibitors of human immunodeficiency virus replication” (VIIV HEALTHCARE UK (NO.5) LIMITED, priority 2018, dated 2022)", "type_in_all_cases": "cell-based", "key": {"[1]": {"system": "recombinant NL4-3 virus (nef section replaced with Renilla luciferase gene) in MT-2 cells", "assay": "HIV cell culture assay (antiviral activity, luciferase readout)", "details": "serial dilutions of compound", "how_it_was_run": "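Test compound in serial dilution was present while MT-2 cells were infected for 4–5 days with recombinant NL4-3 virus made in 293T cells. Antiviral activity was quantified as Renilla luciferase activity, read with a live-cell substrate. EC50 came from the median-effect equation.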"}, "uninfected MT2 cells": {"system": "uninfected MT2 cells", "assay": "Compound cytotoxicity, XTT-based colorimetric assay", "details": "day 4, XTT", "how_it_was_run": "(§1)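 Run under the antiviral-assay protocol but without virus. Viability was read on day 4 and CC50 values were derived from the readout.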"}, "[2]": {"assay": "Compound cytotoxicity, XTT-based colorimetric assay", "details": "human, uninfected MT2 cells, day 4, XTT", "how_it_was_run": "as §1"}, "[3]": {"details": "Renilla, NL43, MT-2 cells infected for 4-5 days with recombinant NL4-3 Renilla luciferase virus"}, "[4]": {"details": "MT-2 cells infected for 4-5 days with recombinant NL4-3 Renilla luciferase virus"}}}
{"smiles": "O=C(Cn1nc(C(F)F)c2c1C(F)(F)[C@@H]1C[C@H]21)N[C@@H](Cc1cc(F)cc(F)c1)c1nc2cc(-c3ccccc3F)ccc2c(=O)n1-c1ccc(Cl)c2c(NS(=O)(=O)C3CC3)nn(CC(F)F)c12", "note": "(atropisomer, axis not shown; (aR)) [Example 115, N-((S)-1-(3-(4-chloro-3-(cyclopropanesulfonamido)-1-(2,2-difluoroethyl)-1H-indazol-7-yl)-7-(2-fluorophenyl)-4-oxo-3,4-dihydroquinazolin-2-yl)-2-(3,5-difluorophenyl)ethyl)-2-((3bS,4aR)-3-(difluoromethyl)-5,5-difluoro-3b,4,4a,5-tetrahydro-1H-cyclopropa[3,4]cyclopenta[1,2-c]pyrazol-1-yl)acetamide]", "values": [{"measurement": "EC50", "setting": "[1]; [3]", "result": 0.469, "unit": "nM"}, {"measurement": "CC50", "setting": "uninfected MT2 cells", "result": "> 10000", "unit": "nM"}]}
{"smiles": "Cn1nc(NS(C)(=O)=O)c2c(Cl)ccc(-n3c([C@H](Cc4cc(F)cc(F)c4)NC(=O)Cn4ccc(C5CC5)n4)nc4cc(-c5ccccc5F)ccc4c3=O)c21", "note": "(single isomer, unassigned) [Example 4]", "values": [{"measurement": "EC50", "setting": "[1]; [4]", "result": 1.1, "unit": "nM"}, {"measurement": "CC50", "setting": "uninfected MT2 cells", "result": "> 1000", "unit": "nM"}]}
{"smiles": "CC(C(=O)N[C@@H](Cc1cc(F)cc(F)c1)c1nc2cc(-c3ccccc3F)ccc2c(=O)n1-c1ccc(Cl)c2c(NS(=O)(=O)C3CC3)nn(CC(F)F)c12)n1ccc(C2CC2)n1", "note": "(single isomer, unassigned) [Example 138]", "values": [{"measurement": "EC50", "setting": "[1]; [4]", "result": 9, "unit": "nM"}, {"measurement": "CC50", "setting": "uninfected MT2 cells", "result": "> 500", "unit": "nM"}]}
{"smiles": "O=C(Cn1nc(C(F)F)c2c1C(F)(F)[C@@H]1C[C@H]21)N[C@@H](Cc1cc(F)cc(F)c1)c1nc2cc(-c3ccccc3F)ccc2c(=O)n1-c1ccc(Cl)c2c(NS(=O)(=O)C3CC3)nn(CC(F)F)c12", "note": "(atropisomer, axis not shown; (aR)) [Example 8, N-((S)-1-(3-(4-chloro-3-(cyclopropanesulfonamido)-1-(2,2-difluoroethyl)-1H-indazol-7-yl)-7-(2-fluorophenyl)-4-oxo-3,4-dihydroquinazolin-2-yl)-2-(3,5-difluorophenyl)ethyl)-2-((3bS,4aR)-3-(difluoromethyl)-5,5-difluoro-3b,4,4a,5-tetrahydro-1H-cyclopropa[3,4]cyclopenta[1,2-c]pyrazol-1-yl)acetamide]", "values": [{"measurement": "EC50", "setting": "[1]; [4]", "result": 0.613, "unit": "nM"}, {"measurement": "CC50", "setting": "uninfected MT2 cells", "result": "> 1000", "unit": "nM"}]}
{"smiles": "Cn1nc(NS(C)(=O)=O)c2c(Cl)ccc(-n3c([C@H](Cc4cc(F)cc(F)c4)NC(=O)Cn4nc(C(F)F)c5c4C(F)(F)[C@@H]4C[C@H]54)nc4cc(-c5ccccc5F)ccc4c3=O)c21", "note": "(single isomer, unassigned) [Example 5]", "values": [{"measurement": "EC50", "setting": "[1]; [3]", "result": 62.7, "unit": "nM"}, {"measurement": "CC50", "setting": "uninfected MT2 cells", "result": "> 1000", "unit": "nM"}]}
{"smiles": "Cn1nc(NS(C)(=O)=O)c2c(Cl)ccc(-n3c([C@H](Cc4cc(F)cc(F)c4)NC(=O)Cn4nc(C(F)F)c5c4C(F)(F)[C@@H]4C[C@H]54)nc4cc(-c5ccccc5F)ccc4c3=O)c21", "note": "(single isomer, unassigned) [Example 6]", "values": [{"measurement": "EC50", "setting": "[1]; [4]", "result": 0.3, "unit": "nM"}, {"measurement": "CC50", "setting": "uninfected MT2 cells", "result": "> 1000", "unit": "nM"}]}
{"smiles": "O=C(Cn1nc(C(F)F)c2c1C(F)(F)[C@@H]1C[C@H]21)N[C@@H](Cc1cc(F)cc(F)c1)c1nc2cc(-c3ncccn3)ccc2c(=O)n1-c1ccc(Cl)c2c(NS(=O)(=O)C3CC3)nn(CC(F)F)c12", "note": "(atropisomer, axis not shown; (aR)) [Example 127, N-((S)-1-(3-(4-chloro-3-(cyclopropanesulfonamido)-1-(2,2-difluoroethyl)-1H-indazol-7-yl)-4-oxo-7-(pyrimidin-2-yl)-3,4-dihydroquinazolin-2-yl)-2-(3,5-difluorophenyl)ethyl)-2-((3bS,4aR)-3-(difluoromethyl)-5,5-difluoro-3b,4,4a,5-tetrahydro-1H-cyclopropa[3,4]cyclopenta[1,2-c]pyrazol-1-yl)acetamide]", "values": [{"measurement": "EC50", "setting": "[1]; [3]", "result": 0.059, "unit": "nM"}, {"measurement": "CC50 at 4 day", "setting": "[2]", "result": "> 500", "unit": "nM"}]}
{"smiles": "Cn1nc(NS(C)(=O)=O)c2c(Cl)ccc(-n3c([C@H](Cc4cc(F)cc(F)c4)NC(=O)Cn4nc(C(F)F)c5c4C(F)(F)[C@@H]4C[C@H]54)nc4cc(-c5cccc(C(C)(C)C)c5)ccc4c3=O)c21", "note": "(atropisomer, axis not shown; (aR)) [Example 45, N-((S)-1-(7-(3-(tert-butyl)phenyl)-3-(4-chloro-1-methyl-3-(methylsulfonamido)-1H-indazol-7-yl)-4-oxo-3,4-dihydroquinazolin-2-yl)-2-(3,5-difluorophenyl)ethyl)-2-((3bS,4aR)-3-(difluoromethyl)-5,5-difluoro-3b,4,4a,5-tetrahydro-1H-cyclopropa[3,4]cyclopenta[1,2-c]pyrazol-1-yl)acetamide]", "values": [{"measurement": "EC50", "setting": "[1]; [3]", "result": 4.5, "unit": "nM"}, {"measurement": "CC50 at 4 day", "setting": "[2]", "result": "> 1000", "unit": "nM"}]}
{"smiles": "Cn1nc(NS(C)(=O)=O)c2c(Cl)ccc(-n3c([C@H](Cc4cc(F)cc(F)c4)NC(=O)Cn4nc(C(F)F)c5c4C(F)(F)[C@@H]4C[C@H]54)nc4cc(-c5ccc(F)c(CO)c5)ccc4c3=O)c21", "note": "(atropisomer, axis not shown; (aR)) [Example 98, N-((S)-1-(3-(4-chloro-1-methyl-3-(methylsulfonamido)-1H-indazol-7-yl)-7-(4-fluoro-3-(hydroxymethyl)phenyl)-4-oxo-3,4-dihydroquinazolin-2-yl)-2-(3,5-difluorophenyl)ethyl)-2-((3bS,4aR)-3-(difluoromethyl)-5,5-difluoro-3b,4,4a,5-tetrahydro-1H-cyclopropa[3,4]cyclopenta[1,2-c]pyrazol-1-yl)acetamide]", "values": [{"measurement": "EC50", "setting": "[1]; [3]", "result": 0.39, "unit": "nM"}, {"measurement": "CC50 at 4 day", "setting": "[2]", "result": "> 1000", "unit": "nM"}]}
{"smiles": "Cc1cc(-c2ccc3c(=O)n(-c4ccc(Cl)c5c(NS(C)(=O)=O)nn(C)c45)c([C@H](Cc4cc(F)cc(F)c4)NC(=O)Cn4nc(C(F)F)c5c4C(F)(F)[C@@H]4C[C@H]54)nc3c2)ccc1Cl", "note": "(atropisomer, axis not shown; (aR)) [Example 31, N-((S)-1-(3-(4-chloro-1-methyl-3-(methylsulfonamido)-1H-indazol-7-yl)-7-(4-chloro-3-methylphenyl)-4-oxo-3,4-dihydroquinazolin-2-yl)-2-(3,5-difluorophenyl)ethyl)-2-((3bS,4aR)-3-(difluoromethyl)-5,5-difluoro-3b,4,4a,5-tetrahydro-1H-cyclopropa[3,4]cyclopenta[1,2-c]pyrazol-1-yl)acetamide]", "values": [{"measurement": "EC50", "setting": "[1]; [3]", "result": 4.7, "unit": "nM"}, {"measurement": "CC50 at 4 day", "setting": "[2]", "result": "> 1000", "unit": "nM"}]}
{"smiles": "Cn1nc(NS(C)(=O)=O)c2c(Cl)ccc(-n3c([C@H](Cc4cc(F)cc(F)c4)NC(=O)Cn4nc(C(F)F)c5c4C(F)(F)[C@@H]4C[C@H]54)nc4cc(-c5ccc(F)c(C(=O)O)c5)ccc4c3=O)c21", "note": "(atropisomer, axis not shown; (aR)) [Example 38, 5-(3-(4-chloro-1-methyl-3-(methylsulfonamido)-1H-indazol-7-yl)-2-((S)-1-(2-((3bS,4aR)-3-(difluoromethyl)-5,5-difluoro-3b,4,4a,5-tetrahydro-1H-cyclopropa[3,4]cyclopenta[1,2-c]pyrazol-1-yl)acetamido)-2-(3,5-difluorophenyl)ethyl)-4-oxo-3,4-dihydroquinazolin-7-yl)-2-fluorobenzoic acid]", "values": [{"measurement": "EC50", "setting": "[1]; [3]", "result": 10, "unit": "nM"}, {"measurement": "CC50 at 4 day", "setting": "[2]", "result": "> 1000", "unit": "nM"}]}
{"smiles": "CC(C)c1cccc(-c2ccc3c(=O)n(-c4ccc(Cl)c5c(NS(C)(=O)=O)nn(C)c45)c([C@H](Cc4cc(F)cc(F)c4)NC(=O)Cn4nc(C(F)F)c5c4C(F)(F)[C@@H]4C[C@H]54)nc3c2)c1", "note": "(atropisomer, axis not shown; (aR)) [Example 41, N-((S)-1-(3-(4-chloro-1-methyl-3-(methylsulfonamido)-1H-indazol-7-yl)-7-(3-isopropylphenyl)-4-oxo-3,4-dihydroquinazolin-2-yl)-2-(3,5-difluorophenyl)ethyl)-2-((3bS,4aR)-3-(difluoromethyl)-5,5-difluoro-3b,4,4a,5-tetrahydro-1H-cyclopropa[3,4]cyclopenta[1,2-c]pyrazol-1-yl)acetamide]", "values": [{"measurement": "EC50", "setting": "[1]; [3]", "result": 4.5, "unit": "nM"}, {"measurement": "CC50 at 4 day", "setting": "[2]", "result": "> 1000", "unit": "nM"}]}
{"smiles": "Cn1nc(NS(C)(=O)=O)c2c(Cl)ccc(-n3c([C@H](Cc4cc(F)cc(F)c4)NC(=O)Cn4nc(C(F)F)c5c4C(F)(F)[C@@H]4C[C@H]54)nc4cc(-c5ccccc5)ccc4c3=O)c21", "note": "[Example 195, N-((S)-1-(3-(4-chloro-1-methyl-3-(methylsulfonamido)-1H-indazol-7-yl)-4-oxo-7-phenyl-3,4-dihydroquinazolin-2-yl)-2-(3,5-difluorophenyl)ethyl)-2-((3bS,4aR)-3-(difluoromethyl)-5,5-difluoro-3b,4,4a,5-tetrahydro-1H-cyclopropa[3,4]cyclopenta[1,2-c]pyrazol-1-yl)acetamide]", "values": [{"measurement": "EC50", "setting": "[1]; [3]", "result": 0.36, "unit": "nM"}, {"measurement": "CC50 at 4 day", "setting": "[2]", "result": "> 1000", "unit": "nM"}]}
{"smiles": "O=C(Cn1nc(C(F)F)cc1C(F)F)N[C@@H](Cc1cc(F)cc(F)c1)c1nc2cc(-c3ccccn3)ccc2c(=O)n1-c1ccc(Cl)c2c(NS(=O)(=O)C3CC3)nn(CC(F)F)c12", "note": "[Example 190, (S)-2-(3,5-bis(difluoromethyl)-1H-pyrazol-1-yl)-N-(1-(3-(4-chloro-3-(cyclopropanesulfonamido)-1-(2,2-difluoroethyl)-1H-indazol-7-yl)-4-oxo-7-(pyridin-2-yl)-3,4-dihydroquinazolin-2-yl)-2-(3,5-difluorophenyl)ethyl)acetamide]", "values": [{"measurement": "EC50", "setting": "[1]; [3]", "result": 2.1, "unit": "nM"}, {"measurement": "CC50 at 4 day", "setting": "[2]", "result": "> 500", "unit": "nM"}]}
{"smiles": "CC(C)n1ccc(CC(=O)N[C@@H](Cc2cc(F)cc(F)c2)c2nc3cc(-c4ccccc4F)ccc3c(=O)n2-c2ccc(Cl)c3c(NS(=O)(=O)C4CC4)nn(CC(F)F)c23)n1", "note": "[Example 140, (S)-N-(1-(3-(4-chloro-3-(cyclopropanesulfonamido)-1-(2,2-difluoroethyl)-1H-indazol-7-yl)-7-(2-fluorophenyl)-4-oxo-3,4-dihydroquinazolin-2-yl)-2-(3,5-difluorophenyl)ethyl)-2-(1-isopropyl-1H-pyrazol-3-yl)acetamide]", "values": [{"measurement": "EC50", "setting": "[1]; [3]", "result": 0.35, "unit": "nM"}, {"measurement": "CC50 at 4 day", "setting": "[2]", "result": "> 500", "unit": "nM"}]}
{"smiles": "Cn1nc(NS(C)(=O)=O)c2c(Cl)ccc(-n3c(C(Cc4cc(F)cc(F)c4)NC(=O)Cn4nc(C(F)F)c5c4C(F)(F)[C@@H]4C[C@H]54)nc4cc(-c5ccccc5F)ccc4c3=O)c21", "note": "(single isomer, unassigned) [Example 1]", "values": [{"measurement": "EC50", "setting": "[1]; [3]", "result": 209, "unit": "nM"}, {"measurement": "CC50 at 4 day", "setting": "[2]", "result": "> 1000", "unit": "nM"}]}
